Test results reported in patent US20240150301A1, “METHODS OF MODULATING ANDROGEN RECEPTOR CONDENSATES” (ETERN BIOPHARMA (SHANGHAI) CO., LTD., priority 2021, published 2024).

Tests used:
AR = biological target: T1, AR (Homo sapiens, UniProt P10275); assay: ARE-luciferase reporter assay in LNCaP cells (DHT-induced); type: cell-based; details: 1 nM DHT, 24 h, normalized to cell viability, read-out: LNCaP ARE-luc IC50
T1 sequence (P10275 1-920 T878A): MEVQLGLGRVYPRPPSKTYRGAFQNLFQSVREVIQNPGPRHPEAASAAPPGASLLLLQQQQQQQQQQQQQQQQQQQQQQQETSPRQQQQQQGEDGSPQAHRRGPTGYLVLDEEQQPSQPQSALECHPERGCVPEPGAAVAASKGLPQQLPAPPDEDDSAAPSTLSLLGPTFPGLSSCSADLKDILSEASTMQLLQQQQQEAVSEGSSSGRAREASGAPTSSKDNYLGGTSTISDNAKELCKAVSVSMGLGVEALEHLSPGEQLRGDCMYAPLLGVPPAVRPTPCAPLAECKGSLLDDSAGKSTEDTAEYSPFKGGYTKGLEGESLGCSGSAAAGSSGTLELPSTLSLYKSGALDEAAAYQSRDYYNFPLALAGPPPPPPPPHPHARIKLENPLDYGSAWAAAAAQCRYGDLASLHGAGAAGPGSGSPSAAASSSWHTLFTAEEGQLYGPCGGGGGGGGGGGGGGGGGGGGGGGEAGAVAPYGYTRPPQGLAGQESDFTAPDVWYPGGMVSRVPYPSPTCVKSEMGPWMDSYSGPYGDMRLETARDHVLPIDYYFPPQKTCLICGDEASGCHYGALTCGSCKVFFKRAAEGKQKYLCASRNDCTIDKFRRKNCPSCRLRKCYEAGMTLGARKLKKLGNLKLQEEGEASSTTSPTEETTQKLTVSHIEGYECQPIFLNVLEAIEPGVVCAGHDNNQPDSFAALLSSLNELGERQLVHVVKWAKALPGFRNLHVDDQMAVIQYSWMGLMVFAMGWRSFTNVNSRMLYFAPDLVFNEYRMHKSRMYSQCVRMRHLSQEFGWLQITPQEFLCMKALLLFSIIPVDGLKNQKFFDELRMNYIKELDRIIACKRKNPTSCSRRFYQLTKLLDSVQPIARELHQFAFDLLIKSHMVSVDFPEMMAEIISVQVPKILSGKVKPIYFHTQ
Procedure: (§1) The ARE-luciferase reporter plasmid contains functional AREs (androgen response elements) to which AR binds in response to androgen to induce luciferase activity. LNCaP (Cobioer) cells were transiently transfected with the ARE-luciferase reporter in charcoal stripped FBS/phenol red-free RPMI medium prior to treatment for 24 hours. Then DMSO or test compounds with serial diluted concentrations were added one hour prior to the addition of DHT(1 nM). After 24 h of incubation with DHT, cells were lysed and luciferase activity was assayed using the ONE-Glo™ Luciferase Assay System (Promega) and measured using EnVision Multimode Plate Reader, according to manufacturer's instructions. Values were normalized to cell viability determined by CellTiter-Glo® Luminescent Cell Viability Assay Kit (Promega). […] GraphPad Prism graphing software was used to calculate IC50 values.

AR V7 = biological target: T2, AR V7 (Homo sapiens, UniProt P10275); assay: ARE-luciferase reporter assay in HEK293T cells cotransfected with AR-V7; type: cell-based; parameters: host or cells: HEK293T; details: HEK293T cotransfected with AR-V7, hormone-starved, 24 h; read-out: HEK293T(V7) ARE-luc IC50
T2 sequence (P10275 1-644 isoform P10275-3): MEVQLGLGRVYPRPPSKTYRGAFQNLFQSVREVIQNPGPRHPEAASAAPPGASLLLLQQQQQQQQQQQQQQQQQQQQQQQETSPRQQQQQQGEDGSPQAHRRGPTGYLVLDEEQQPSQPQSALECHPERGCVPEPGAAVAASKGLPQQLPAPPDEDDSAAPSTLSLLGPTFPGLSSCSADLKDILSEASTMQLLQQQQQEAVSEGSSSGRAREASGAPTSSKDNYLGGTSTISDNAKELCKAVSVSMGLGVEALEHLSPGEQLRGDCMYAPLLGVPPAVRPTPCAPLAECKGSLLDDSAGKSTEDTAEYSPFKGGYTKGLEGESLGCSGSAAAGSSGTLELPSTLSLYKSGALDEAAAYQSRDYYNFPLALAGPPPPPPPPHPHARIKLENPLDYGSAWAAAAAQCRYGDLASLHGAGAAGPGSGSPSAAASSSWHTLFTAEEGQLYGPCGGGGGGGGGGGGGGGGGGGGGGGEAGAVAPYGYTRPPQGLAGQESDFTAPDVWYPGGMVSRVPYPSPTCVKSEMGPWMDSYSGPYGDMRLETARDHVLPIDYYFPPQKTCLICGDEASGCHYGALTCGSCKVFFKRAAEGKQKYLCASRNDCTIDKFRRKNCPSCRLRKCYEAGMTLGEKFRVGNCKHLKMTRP
Procedure: as §1
To evaluate the transcriptional activity of AR-V7, HEK293T(Cobioer) cells were transiently cotransfected with an expression vector for AR-V7 and the ARE-luciferase reporter in hormone-starved conditions. For 22Rv1(Cobioer) prostate cancer cell line, which expresses endogenous AR-V7, ARE-luciferase reporter was transiently transfected in hormone-starved conditions. 24 h after transfection, DMSO or test compounds with serial diluted concentrations were added for additional 24 h incubation. Reporter activity was detected and normalized by cell viability as described above. Treatments were normalized to DMSO control activity, and IC50 values were further determined via GraphPad Prism graphing software.

## CC(C)(c1ccc(OCc2ccnc(N=S3(=O)CCNCC3)n2)cc1)c1cc(Cl)c(OCCCl)c(C#N)c1 [Compound 6, 3-chloro-2-(2-chloroethoxy)-5-(2-(4-((2-((1-oxido-1λ^6-thiomorpholin-1-ylidene)amino)pyrimidin-4-yl)methoxy)phenyl)propan-2-yl)benzonitrile]
AR
  IC50: 3.5 µM
AR V7
  IC50: 2.1 µM

## CC(C)(c1ccc(C#Cc2cnc(NS(C)(=O)=O)nc2)cc1)c1cc(Cl)c(OCCCl)c(C#N)c1 [Compound 60, N-(5-((4-(2-(3-chloro-4-(2-chloroethoxy)-5-cyanophenyl)propan-2-yl)phenyl)ethynyl)pyrimidin-2-yl)methanesulfonamide]
AR
  IC50: 4.7 µM
AR V7
  IC50: 8.9 µM

## CC(C)(c1ccc(OCc2ccnc(NS(C)(=O)=O)n2)cc1)c1cc(Cl)c(OCCCl)c(C#N)c1 [Compound AA, N-(4-((4-(2-(3-chloro-4-(2-chloroethoxy)-5-cyanophenyl)propan-2-yl)phenoxy)methyl)pyrimidin-2-yl) methane sulfonamide, reference compound]
AR
  IC50: 12.6 µM
AR V7
  IC50: > 20 µM
